Reference: ChEMBL document CHEMBL5523733, “Small Molecule Targeting PPM1A Activates Autophagy for Mycobacterium tuberculosis Host-Directed Therapy” (J Med Chem, 2024)

How the values were obtained:
Protein phosphatase 1A = target: T1, Protein phosphatase 1A (Homo sapiens, UniProt P35813); experiment: Inhibition of recombinant human PPM1A using pNPP as substrate preincubated for 15 mins followed by substrate addition measured after 20 mins by absorbance based assay
T1 sequence (P35813 whole entry): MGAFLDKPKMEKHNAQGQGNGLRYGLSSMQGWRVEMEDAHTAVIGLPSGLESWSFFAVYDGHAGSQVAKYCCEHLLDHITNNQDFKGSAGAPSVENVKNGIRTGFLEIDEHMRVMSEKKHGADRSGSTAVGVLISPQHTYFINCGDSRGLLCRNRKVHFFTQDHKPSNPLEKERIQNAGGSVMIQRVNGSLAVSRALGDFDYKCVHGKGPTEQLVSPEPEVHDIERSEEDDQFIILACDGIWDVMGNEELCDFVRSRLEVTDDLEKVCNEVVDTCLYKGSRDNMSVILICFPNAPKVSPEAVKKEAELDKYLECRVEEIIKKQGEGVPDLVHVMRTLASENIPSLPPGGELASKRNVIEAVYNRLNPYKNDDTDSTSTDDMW

[1] = Cytotoxicity against human THP-1 cells by resazurin dye based assay; format: toxicity, cell-based
[2] = Cytotoxicity against human Caco-2 cells by resazurin dye based assay; format: toxicity, cell-based

Structure (SMILES) | IC50 (Protein phosphatase 1A) [µM] | CC50 [1] [µM] | CC50 [2] [µM]
COc1ccc2c(c1)c[n+](CCO)c1ccc(C)cc21 | > 20 |  | 
COc1cc2c[n+](CCO)c3ccc(F)cc3c2cc1OC | > 20 |  | 
COc1cc2c[n+](CCO)c3ccc(F)cc3c2cc1-c1cc(C)cc(C)c1 | > 20 |  | 
COc1ccc2c(c1)c[n+](CCO)c1ccc(Br)cc21 | 4.51 | 68 | 185
CC(C)Oc1ccc2c(c1)c[n+](CCO)c1ccc(F)cc21 | 3.72 |  | 
COc1ccc2c(c1)c1ccc(OC(F)(F)F)cc1c[n+]2CCO | 3.06 |  | 
CCCCOc1ccc2c(c1)c[n+](CCO)c1ccc(F)cc21 | 3.56 |  | 
COc1ccc2c(c1)c[n+](CCO)c1ccc(OC)cc21 | 2.6 | 47.2 | > 200
CCOc1ccc2c(c1)c[n+](CCO)c1ccc(OC)cc21 | > 20 |  | 
COc1ccc2c(c1)c[n+](CCO)c1ccccc21 | > 20 |  | 
